Source: patent US20250326779A1, “ANTI-HIV COMPOUNDS” (priority 2024, published 2025)
Values after ≈ are worked out from the molar mass of the structure shown.

How the values were obtained:
[1] = test system: HIV-1 IIIB strain; assay: MT-4 HIV Wild Type Virus Infection Assay (IIIB Virus); format: cell-based; conditions: Human immunodeficiency virus 1, MT4, 120 h; MT-4 cells acutely infected with HIV-1 IIIB, 5 day incubation, Cell-titer glo
Protocol: MT-4 HIV Wild Type Virus Infection Assay (IIIB Virus)
Test compounds and controls were serially diluted and spotted in replicate into 384 well black assay plates via acoustic transfer (Echo). MT-4 cells were grown in batch, centrifuged and resuspended into fresh CCM media (RPMI w/10% FBS, 1% PS) at 2×10^6 cells/ml. MT-4 cells were acutely infected with HIV-1 IIIB strain. The size of each infection mix was scaled by the number of sample plates to be tested. Each infection mix was transferred into 5 mL closed tubes and nutated rapidly on a shaker at 37° C. incubator for 1 hour. The infection mixes were then diluted 25× in fresh cell culture media and then added to assay plates at 40 μL per well using a ViaFlo 384 pipettor. After 5 day incubation at 37° C. in a C02 incubator, assay plates were processed with Cell-titer glo reagent using a ViaFlo 384 with an addition/mixing program. Plates were read immediately on Envision reader. Assay signals were plotted and dose response curves generated to determine individual compound EC50s.

[2] = target: T1, bovine intestinal alkaline phosphatase (Bos taurus, UniProt P19111); assay: BiALP: conversion by bovine intestinal alkaline phosphatase; format: in vitro ADME; conditions: remaining substrate after 60 min at 37° C., 2 μM substrate, 100 ng/mL iALP, Tris buffer pH 7.8
T1 construct: purchased Millipore Sigma (St. Louis, MO) or Thermo Fisher Scientific (Waltham, MA)
Protocol: Fosamprenavir and its parent compound (amprenavir) were purchased from Millipore Sigma (St. Louis, MO). Test compounds, Intermediate A, fosamprenavir, and amprenavir were each separately dissolved in dimethyl sulfoxide (DMSO) at a concentration of 10 mM to form stock solutions.
All other chemicals were purchased from Millipore Sigma (St. Louis, MO) and Thermo Fisher Scientific (Waltham, MA). The chemicals included purified bovine intestinal alkaline phosphatase as a lyophilized powder (specific activity: 101 diethanolamine units/mg solid). Internal Standard/Quench (IS/Q) was 100 nM labetalol in 99:1 (v/v) acetonitrile/formic acid.
Incubations were performed with Tris buffer alone (0.1 M Tris-HCl pH 7.8 containing 1 mM MgCl2 and 1 mM ZnCl2) or the same Tris buffer further containing 100 ng/mL iALP (0.01 units/mL). Triplicate 100 μL aliquots of Tris buffer±iALP were warmed to 37° C. and the reactions were initiated by the addition of the test compound or fosamprenavir to obtain final substrate concentrations of 2 μM. Incubations were then continued at 37° C. […] Aliquots (15 μL) of the diluted supernatants were analyzed by mass spectrometry as described below.
Quantification of the test compounds and fosamprenavir was performed by analyte/internal standard peak area ratios (PARs) with comparison to 2 μM Intermediate A and amprenavir, respectively. […]

[3] = Intestinal S9 Assay (human); format: in vitro ADME; conditions: pooled intestinal S9 fraction, 1.0 mg/mL S9 protein, 2 μM substrate, TRIS pH 7.4, read-out: Human GI S9 T½
Protocol: (§1) Reagents. Stock solutions of test compounds in dimethyl sulfoxide (DMSO) having a final concentration of 10 mM were prepared and used in all experiments. Sekisui XenoTech (Kansas City, KS) provided pooled intestinal S9 fractions. All other chemicals were purchased from Sigma-Aldrich (St. Louis, MO) or VWR (West Chester, PA).
(§2) Intestinal S9 Assay: For each test compound, an aliquot of the test compound was added to S9 stock diluted with TRIS buffer (100 mM TRIS, 1 mM ZnCl2, 1 mM MgCl2), pH 7.4, to obtain an incubation protein concentration of 1.0 mg/mL. The incubation was initiated by the addition of the substrate to the S9 reaction mixture to a final concentration of 2 μM. […] After quenching, the plates were centrifuged at 3000×g for 30 minutes. 150 μL aliquots of each supernatant were transferred to new plates and 150 μL water was added. Aliquots (10 μL) of the prepared samples were analyzed on a Thermo Q-Exactive mass spectrometer as described below.
(§3) Liquid Chromatography-Mass Spectrometry: Quantification of test compounds and control substrate was performed by analyte/internal standard peak area ratio (PAR) values measured on a Thermo Q-Exactive mass spectrometer coupled to a Dionex UltiMate 3000 HPLC with a Leap Technologies HTC PAL autosampler. The column used for analysis was a Thermo Scientific Hypersil GOLD (1.9 μm particle size, 50×2.1 mm). […]

[4] = Intestinal S9 Assay (dog); format: in vitro ADME; conditions: pooled intestinal S9 fraction, 1.0 mg/mL S9 protein, 2 μM substrate, TRIS pH 7.4, read-out: Dog GI S9 T½
Protocol: as §1, §2, §3

[5] = pH 7 Stability Assay; format: physicochemical; conditions: ACN/pH 7.4 buffer with 1% DMSO stock; 1/49.5/49.5% v/v DMSO stock/ACN/pH 7.4 buffer, UPLC 0-24 h; read-out: pH7 T½
Protocol: pH 7 Stability Assay: A sample stock at approximately 10 mg/mL of each test compound was prepared with dimethyl sulfoxide (DMSO) in vials. […] Sample vials were prepared by adding 495 μL ACN into a UPLC vial followed by 495 μL pH 7.4 buffer. Then 10 μL test compound stock solution from the first step was added to that UPLC vial. 1000 uL 50/50% v/v ACN/Water was used as diluent blank.
Metabolic stabilities were determined by measuring the rates of disappearance of test compound and positive control substrate. • Data (% of substrate remaining) were plotted on a semi-log scale and fitted using an exponential decline model:
[formula] • Assuming a first-order reaction, the slope (k) is extrapolated from the aforementioned plotted data.

[6] = Solubility in FaSSIF; format: physicochemical; conditions: 23 °C, thermodynamic from solid; FaSSIF pH 6.5, 5 mg/mL dose concentration, 2-hour incubation, ambient temperature
Protocol: Buffer Preparation: Fasted State Simulated Intestinal Fluid (FaSSIF): Simulated Intestinal Fluid (SIF) powder containing a complex of Taurocholate and Lecithin (4:1 molar ratio) was obtained from Biorelevant. […] The buffer was prepared with HPLC H2O.
Test Compounds: Each test compound was placed in a vial containing approximately 7 mg of material. Aliquots were weighed out for each assay media at each time point to be analyzed. The buffer was added to each vial such that the final dose concentration of 5 mg/mL was achieved. Samples were then vortexed for 5-10 seconds.
The plate was sealed with a pierceable heat seal and analyzed by HPLC-UV.

T1 sequence (P19111 20-506 limits assumed): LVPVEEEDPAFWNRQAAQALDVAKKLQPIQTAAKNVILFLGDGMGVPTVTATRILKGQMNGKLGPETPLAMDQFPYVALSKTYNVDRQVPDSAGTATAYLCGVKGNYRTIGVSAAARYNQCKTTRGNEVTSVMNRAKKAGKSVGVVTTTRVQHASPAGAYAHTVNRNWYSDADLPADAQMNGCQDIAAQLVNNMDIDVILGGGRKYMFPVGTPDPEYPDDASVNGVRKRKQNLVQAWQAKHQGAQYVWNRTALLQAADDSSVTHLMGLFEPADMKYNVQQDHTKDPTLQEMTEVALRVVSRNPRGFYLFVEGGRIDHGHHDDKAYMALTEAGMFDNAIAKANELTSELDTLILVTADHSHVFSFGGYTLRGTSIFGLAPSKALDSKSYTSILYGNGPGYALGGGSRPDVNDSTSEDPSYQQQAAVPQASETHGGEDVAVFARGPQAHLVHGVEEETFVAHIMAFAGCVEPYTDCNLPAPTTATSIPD

Row | SMILES | EC50 [1] [nM] | [Compound] [2] [nM] | half-life at 2 μM [3] [h] | half-life at 2 μM [4] [h] | half-life at 0.1 mg/mL [5] [h] | solubility at 2 h [6] [µg/mL]
1 | COC(=O)N[C@H](C(=O)N[C@@H](Cc1ccc(C#Cc2cnc(N3CC4CCC(C3)N4C3COC3)nc2)cc1)[C@H](CN(Cc1c(F)cc(-c2ccn(C(F)F)n2)cc1F)NC(=O)[C@@H](NC(=O)OC)C(C)(C)C(F)(F)F)OCOP(=O)(O)O)C(C)(C)C(F)(F)F [Compound 1, methyl ((5S,8S,9S,14S)-11-(4-(1-(difluoromethyl)-1H-pyrazol-3-yl)-2,6-difluorobenzyl)-16,16,16-trifluoro-15,15-dimethyl-8-(4-((2-(8-(oxetan-3-yl)-3,8-diazabicyclo[3.2.1]octan-3-yl)pyrimidin-5-yl)ethynyl)benzyl)-3,6,13-trioxo-9-((phosphonooxy)methoxy)-5-(1,1,1-trifluoro-2-methylpropan-2-yl)-2-oxa-4,7,11,12-tetraazahexadecan-14-yl)carbamate] | 22.3 | 1691 | 0.787 | 1.36 | > 480 | 580 (≈ 458 µM)
2 | CC(C)CN(C[C@@H](OP(=O)(O)O)[C@H](Cc1ccccc1)NC(=O)O[C@H]1CCOC1)S(=O)(=O)c1ccc(N)cc1 [Fosamprenavir, reference compound] |  | 1605 |  |  |  | 
